Data set [1] deals with mice. In words: Intracerebral toxicity in mice (LD50). In kind it is in vivo. An excerpt:
(§1) As indicated above, the new non-ionic compounds according to the invention have shown markedly low levels of toxicity, especially in intracerebral tests. […] It will be seen that all the new compounds listed are very much better than the known compounds in the intracerebral test.
(§2) Intravenous and Intracerebral Toxicity
(§3) Most of the compounds were so inert that it was not physically possible to inject sufficient substance to kill 50% of the mice and in such cases only a minimum value can be given for the LD50.

The subject of data set [2] is mice. The data set is described as follows: Intravenous toxicity in mice (LD50). In kind it is in vivo.
From the text: as §1, §2, §3

A short description of the next data set: Solubility in water. The conditions noted are these: for solubility: water. Format: physicochemical.
The mark [3] stands for this setting: known compounds, dose 0.05 ml/20 g mouse, concentration not given.
[4] abbreviates: concentration administered 280 mgI/ml, N-methylglucamine salt.
Where [5] appears, read: room temperature, read-out: Solubility in water at room temperature (class).
[6] abbreviates: 400 mgI/ml, dose 0.05 ml/20 g mouse.
Setting [7] is: 300 mgI/ml, dose 0.10 ml/20 g mouse.
[8] abbreviates: concentration administered 300 mgI/ml.
Where [9] appears, read: room temperature, figure in parentheses, read-out: Solubility in water at room temperature.

Structures are written as SMILES. In brackets after ≈: the same amount, converted by molar mass. Where two headings read alike, the source gives them in different places.

In the case of `CNC(=O)c1c(I)c(NC(C)=O)c(I)c(C(=O)O)c1I` [5-Acetamido-2,4,6-triiodo-N-methylisophthalamic acid, reference compound], the “Intracerebral LD50” value in the data set on mice [1] (setting [3]) stood at 210 mgI/kg. Also, the “Intravenous LD50” value in the data set on mice [2] (setting [4]) worked out at 6000 mgI/kg.

Usually solubility stands for the concentration that dissolves in the medium under given conditions. Regarding `CC(=O)N(C)c1c(I)cc(I)c(C(=O)NC[C@H](O)[C@@H](O)[C@H](O)[C@H](O)CO)c1I` [Compound 1, N-(3-N-methylacetamido-2,4,6-triiodobenzoyl)-glucamine], the solubility in “Solubility in water” (setting [5]) is greater than 500 mg/mL.

Consider `CC(=O)N(C)c1c(I)c(C(=O)N(C)CC(O)CO)c(I)c(N(CCO)C(C)=O)c1I` (stereo not drawn) [Compound 4, N-[3-N-(β-hydroxyethyl)-acetamido-5-N-methylacetamido-2,4,6-triiodobenzoyl]-N-methyl-2,3-dihydroxypropylamine], for which, in “Solubility in water” (setting [5]), the solubility is greater than 500 mg/mL. Also, the “Intracerebral LD50” value with mice [1] (setting [6]) is greater than 1000 mgI/kg.

Consider `CC(=O)N(CCO)c1c(I)c(C(=O)N(CCO)CCO)c(I)c(N(CCO)C(C)=O)c1I` [Compound 5, N-[N,N'-di-(β-hydroxyethyl)-3,5-diacetamido-2,4,6-triiodobenzoyl]-diethanolamine], for which the solubility in the data set “Solubility in water” (setting [5]) is greater than 500 mg/mL.

Take `CNC(=O)c1c(I)c(NC(C)=O)c(I)c(C(=O)N(C)C[C@H](O)[C@@H](O)[C@H](O)[C@H](O)CO)c1I` [Compound 6]: the solubility in the data set “Solubility in water” (setting [5]) was greater than 500 mg/mL. Moreover, the “Intracerebral LD50” value with mice [1] (setting [7]) is reported as greater than 1500 mgI/kg. In addition, the “Intravenous LD50” value in the data set with mice [2] (setting [8]) stood at 10000 mgI/kg.

`CC(=O)NCc1c(I)c(NC(C)=O)c(I)c(C(=O)N(C)C[C@H](O)[C@@H](O)[C@H](O)[C@H](O)CO)c1I` [Compound 7, N-(3-Acetamido-5-acetamidomethyl-2,4,6-triiodobenzoyl)-N-methylglucamine]: the solubility in the data set “Solubility in water” (setting [5]) was greater than 500 mg/mL.

With `CC(=O)N(C)c1c(I)c(C(=O)N[C@H]2C(O)O[C@H](CO)[C@@H](O)[C@@H]2O)c(I)c(N(CCO)C(C)=O)c1I` (stereo partly drawn) [Compound 10, N-[3-N-(β-hydroxyethyl)-acetamido-5-N-methylacetamido-2,4,6-triiodobenzoyl]-glucosamine], the solubility in the data set “Solubility in water” (setting [5]) is greater than 500 mg/mL. Further, the “Intracerebral LD50” value with mice [1] (300 mgI/ml, dose 0.05 ml/20 g mouse) is greater than 750 mgI/kg; with mice [1] (setting [7]), greater than 1500 mgI/kg. Moreover, in the data set on mice [2] (setting [8]), the “Intravenous LD50” value was 8250 mgI/kg.

Regarding `CC(=O)N(CCO)c1c(I)c(C(=O)N[C@H]2C(O)O[C@H](CO)[C@@H](O)[C@@H]2O)c(I)c(N(CCO)C(C)=O)c1I` (stereo partly drawn) [Compound 12, N-[N,N'-di-(β-hydroxyethyl)-3,5-diacetamido-2,4,6-triiodobenzoyl]-glucosamine], the solubility in the data set “Solubility in water” (setting [5]) is greater than 500 mg/mL. In addition, the “Intracerebral LD50” value in the data set with mice [1] (setting [7]) is reported as greater than 1500 mgI/kg. Also, in the data set on mice [2] (concentration administered 300 mgI/ml, dose 0.8 ml/20 g mouse), the “Intravenous LD50” value is reported as greater than 12000 mgI/kg.

Regarding `CC(=O)Nc1c(I)c(NC(C)=O)c(I)c(C(=O)N[C@H]2C(O)O[C@H](CO)[C@@H](O)[C@@H]2O)c1I` (stereo partly drawn) [Compound 14, N-(3,5-diacetamido-2,4,6-triiodobenzoyl)-glucosamine], the solubility in the data set “Solubility in water” (setting [5]) was greater than 500 mg/mL.

Consider `CC(=O)Nc1c(I)c(C(=O)N[C@@H](CO)[C@@H](O)[C@H](O)[C@H](O)CO)c(I)c(N(C)C(C)=O)c1I` [Compound 15, N-(N-methyl-3,5-diacetamido-2,4,6-triiodobenzoyl)-2-glucamine], for which the solubility in “Solubility in water” (setting [5]) is greater than 500 mg/mL. The “Intracerebral LD50” value with mice [1] (setting [7]) is recorded as greater than 1500 mgI/kg. For the same molecule, the “Intravenous LD50” value in the data set on mice [2] (concentration administered 300 mgI/ml, dose 1.0 ml/20 g mouse) is given as greater than 15000 mgI/kg.

Consider `CNC(=O)c1c(I)c(NC(C)=O)c(I)c(C(=O)N[C@H]2C(O)O[C@H](CO)[C@@H](O)[C@@H]2O)c1I` (stereo partly drawn) [Compound 19, N-(3-acetamido-5-N-methylcarbamoyl-2,4,6-triiodobenzoyl)-D-glucosamine], for which the solubility in the data set “Solubility in water” (28°, read-out: Solubility in water at 28°) was determined as 14 mg/mL (≈ 18.1 mM).

Turning to `CC(=O)Nc1c(I)c(NC(C)=O)c(I)c(C(=O)N(C)C[C@H](O)[C@@H](O)[C@H](O)[C@H](O)CO)c1I` [Compound 25, N-(3,5-diacetamido-2,4,6-triiodobenzoyl)-N-methyl-glucamine], the figures for the solubility in “Solubility in water” (setting [9]) and in “Solubility in water” (setting [5]) were 79 mg/mL (≈ 99.9 mM) and less than 200 mg/mL, respectively.

As for `CN(C[C@H](O)[C@@H](O)[C@H](O)[C@H](O)CO)S(=O)(=O)CI` [Compound 28, N-(Iodomethane sulphonyl)-N-methylglucamine], the “Solubility in hot water” value in “Solubility in water” (in words) was “Very soluble in hot water”. For the same molecule, the solubility in the data set “Solubility in water” (cold water, read-out: Solubility in cold water) was roughly 100 mg/mL (≈ 250 mM).

Consider `O=S(=O)(CI)N(CCO)CCO` [Compound 29, N-(Iodomethanesulphonyl)-diethanolamine], for which, in the data set “Solubility in water” (cold water, in words), the “Solubility in cold water” value is “sparingly soluble in cold”. For the same molecule, in the data set “Solubility in water” (in words), the “Solubility in hot water” value is reported as “Soluble in hot water”.

`CC(=O)Nc1c(I)cc(I)c(C(=O)N(C)C[C@H](O)[C@@H](O)[C@H](O)[C@H](O)CO)c1I` [Compound 30, N-(3-acetamido-2,4,6-triiodobenzoyl)-N-methyl-glucamine]: in the data set “Solubility in water” (setting [5]), the solubility was greater than 500 mg/mL.

As to `CC(=O)N(C)c1c(I)cc(I)c(C(=O)N(C)C[C@H](O)[C@@H](O)[C@H](O)[C@H](O)CO)c1I` [Compound 31, N-(3-N-methylacetamido-2,4,6-triiodobenzoyl)-N-methylglucamine], the solubility in the data set “Solubility in water” (setting [5]) is greater than 500 mg/mL.

Take `CC(=O)N(C)c1c(I)cc(I)c(C(=O)N[C@H]2C(O)O[C@H](CO)[C@@H](O)[C@@H]2O)c1I` (stereo partly drawn) [Compound 32, N-(3-N-methylacetamido-2,4,6-triodobenzoyl)-D-glucosamine]: in “Solubility in water” (setting [5]), the solubility is greater than 500 mg/mL.

Consider `CC(=O)Nc1c(I)c(C(=O)N(CCO)CCO)c(I)c(N(C)C(C)=O)c1I` [Compound 34, N-(N-methyl-3,5-diacetamido-2,4,6-triiodobenzoyl)-N,N-di-(β-hydroxyethyl)-amine], for which the solubility was 213 mg/mL (≈ 298 mM) in the data set “Solubility in water” (setting [9]) and 200 to 500 mg/mL (≈ 280 to 699 mM) in the data set “Solubility in water” (setting [5]).

Take `CC(=O)OCCN(C(C)=O)c1c(I)c(C(=O)N(C)C[C@H](O)[C@@H](O)[C@H](O)[C@H](O)CO)c(I)c(N(C)C(C)=O)c1I` [Compound 36, N-[3-N-methylacetamido-5-N-(β-acetoxyethyl)-acetamido-2,4,6-triiodobenzoyl]-N-methylglucamine]: the solubility in “Solubility in water” (setting [5]) lay in the range of 200 to 500 mg/mL (≈ 224 to 561 mM).

Take `CC(=O)N(C)c1c(I)c(C(=O)NCCO)c(I)c(N(CCO)C(C)=O)c1I` [Compound 37, N-[3-N-methylacetamido-5-N-(β-hydroxyethyl)-acetamido-2,4,6-triiodobenzoyl]-ethanolamine]: the solubility in “Solubility in water” (setting [9]) is 4 mg/mL (≈ 5.59 mM); in the data set “Solubility in water” (setting [5]), less than 200 mg/mL.

As to `CC(=O)N(C)c1c(I)c(C(=O)N(C)CCO)c(I)c(N(CCO)C(C)=O)c1I` [Compound 38, N-[3-N-methylacetamido-5-N-(β-hydroxyethyl)-acetamido-2,4,6-triiodobenzoyl]-N-methylethanolamine], the solubility is 255 mg/mL (≈ 350 mM) in “Solubility in water” (setting [9]) and 200 to 500 mg/mL (≈ 274 to 686 mM) in the data set “Solubility in water” (setting [5]).

For the molecule `CC(=O)N(C)c1c(I)c(C(=O)N(CCO)CCO)c(I)c(N(CCO)C(C)=O)c1I` [Compound 39, N-[3-N-methylacetamido-5-N-(β-hydroxyethyl)-acetamido-2,4,6-triiodobenzoyl]-diethanolamine], the solubility in “Solubility in water” (setting [5]) is greater than 500 mg/mL.

Consider `CC(=O)N(C)c1c(I)c(C(=O)NCC(O)CO)c(I)c(N(CCO)C(C)=O)c1I` (stereo not drawn) [Compound 40, N-[3-N-methylacetamido-5-N-(β-hydroxyethyl)-acetamido-2,4,6-triiodobenzoyl]-N-(2,3-dihydroxypropyl)-amine], for which the solubility is 2.6 mg/mL (≈ 3.49 mM) in the data set “Solubility in water” (setting [9]) and less than 200 mg/mL in the data set “Solubility in water” (setting [5]).

Take `CC(=O)N(C)c1c(I)c(C(=O)NC(CO)(CO)CO)c(I)c(N(CCO)C(C)=O)c1I` [Compound 41, N-[3-N-methylacetamido-5-N-(β-hydroxyethyl)-acetamido-2,4,6-triiodobenzoyl]-N-[tris-(hydroxymethyl)-methyl]-amine]: the values for the solubility in “Solubility in water” (setting [9]) and in “Solubility in water” (setting [5]) were 8.6 mg/mL (≈ 11.1 mM) and less than 200 mg/mL, respectively.

Regarding `CC(=O)N(CCO)c1c(I)c(C(=O)N(C)C[C@H](O)[C@@H](O)[C@H](O)[C@H](O)CO)c(I)c(N(CCO)C(C)=O)c1I` [Compound 43, N-[3,5-bis-N-(β -hydroxyethyl)-acetamido-2,4,6-triiodobenzoyl]-N-methylglucamine], the solubility in “Solubility in water” (setting [5]) is greater than 500 mg/mL. In addition, the “Intracerebral LD50” value in the data set on mice [1] (setting [6]) is listed as greater than 1000 mgI/kg; in the data set on mice [1] (400 mgI/ml, dose 0.10 ml/20 g mouse), greater than 2000 mgI/kg. In the data set with mice [2] (setting [8]), the “Intravenous LD50” value is given as 7500 mgI/kg.

For the molecule `CC(=O)N(CCO)c1c(I)c(C(=O)NCCO)c(I)c(N(CCO)C(C)=O)c1I` [Compound 45, N-[3,5-bis-N-(β-hydroxyethyl)-acetamido-2,4,6-triiodobenzoyl]-ethanolamine], the solubility in “Solubility in water” (setting [9]) is 214 mg/mL (≈ 287 mM); in the data set “Solubility in water” (setting [5]), 200 to 500 mg/mL (≈ 268 to 671 mM).

For the molecule `CNC(=O)c1c(I)c(NC(C)=O)c(I)c(C(=O)N(CCO)C[C@H](O)[C@@H](O)[C@H](O)[C@H](O)CO)c1I` [Compound 49, N-(3-Acetamido-5-N-methylcarbamoyl-2,4,6-triiodobenzoyl)-N-(2-hydroxyethyl)-glucamine], the “Intracerebral LD50” value in the data set with mice [1] (setting [7]) is greater than 1500 mgI/kg. The “Intravenous LD50” value in the data set with mice [2] (setting [8]) stood at 15000 mgI/kg.

As to `O=S(=O)(O)CI` [Iodomethanesulphonic acid, reference compound], the “Intracerebral LD50” value in the data set with mice [1] (setting [3]) was determined as 195 mgI/kg.

As for `CC(=O)Nc1c(I)c(C(=O)O)c(I)c(N(C)C(C)=O)c1I` [N-Methyl-3,5-diacetamido-2,4,6-triiodobenzoic acid, reference compound], the “Intracerebral LD50” value in the data set with mice [1] (setting [3]) stood at 130 mgI/kg. Also, the “Intravenous LD50” value in the data set on mice [2] (setting [4]) is given as 6000 mgI/kg.

Source of the values: patent publication US4021481A, “Amido derivatives of 2,4,6-triiodobenzoic acids containing at least one N-hydroxyalkyl and at least two hydroxyl groups” (Nyegaard & Co. A/S, priority 1969, dated 1977).
